Measurements from US20230129359A1, “MUSCARINIC RECEPTOR 4 ANTAGONISTS AND METHODS OF USE” (Neurocrine Biosciences, Inc., priority 2020, published 2023).

Target: T1, human M4 receptor (Homo sapiens, UniProt P08173)
T1 construct: expressed in transfected cells; host or cells: CHO cells
T1 sequence (P08173 1-479): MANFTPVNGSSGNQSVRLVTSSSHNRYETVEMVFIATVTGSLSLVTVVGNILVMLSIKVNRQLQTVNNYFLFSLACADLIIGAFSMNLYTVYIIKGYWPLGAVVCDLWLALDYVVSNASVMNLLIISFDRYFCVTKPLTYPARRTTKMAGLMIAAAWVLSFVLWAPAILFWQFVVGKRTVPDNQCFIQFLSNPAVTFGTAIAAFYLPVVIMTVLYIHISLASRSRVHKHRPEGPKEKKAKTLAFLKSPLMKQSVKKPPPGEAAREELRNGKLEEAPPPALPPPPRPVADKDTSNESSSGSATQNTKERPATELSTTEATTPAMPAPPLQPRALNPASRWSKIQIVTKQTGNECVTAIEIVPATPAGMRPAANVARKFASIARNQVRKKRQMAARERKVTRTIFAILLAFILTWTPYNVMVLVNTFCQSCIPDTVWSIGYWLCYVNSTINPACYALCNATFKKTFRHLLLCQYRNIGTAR
Assay: Radioligand ([3H]N-methylscopolamine) binding assay, membranes from CHO cells expressing human M4 receptor
Conditions: Ki against human M4 receptor; membranes from CHO cells; tritiated N-methylscopolamine 1.5 nM; read-out: K
Method: Binding affinity (Ki) for the compounds was measured by inhibition of radioligand binding to membranes from CHO cells expressing human M4 receptor. Membranes were prepared by nitrogen cavitation and differential centrifugation as previously described (Hoare et al., Mol. Pharmacol. 2003 March; 63(3): 751-65). The radioligand employed was tritiated N-methylscopolamine, used at a concentration of 1.5 nM. A dose-response of twelve concentrations of compound was used, ranging from […]. The assay buffer was 50 mM HEPES, 100 mM NaCl, 5 mM MgCl2, 1 mM ethylenediaminetetraacetic acid, pH-adjusted to pH 7.4. Membranes, radioligand and compound were incubated together for 90 minutes at 37° C., in a total volume of 150 μL in a 96-well plate. Receptor-bound radioligand was then collected by harvesting the assay over glass fiber filters pretreated with polyethylenimine to trap the cell membranes, using rapid vacuum filtration. Harvesting and radioactivity counting was conducted as previously described (see, e.g., Hoare et al., Mol. Pharmacol. 2003 63(3):751-65); Erratum at Mol. Pharmacol. 2005 July; 68(1): 260).

SMILES: N#Cc1cnc(N2CC3CC(C2)N3C(=O)OC2CC3(C2)CN(Cc2ccccc2)C3)cn1 [Compound 111, 2-benzyl-2-azaspiro[3.3]heptan-6-yl 3-(5-cyanopyrazin-2-yl)-3,6-diazabicyclo[3.1.1]heptane-6-carboxylate]
- Ki: 100 to 1000 nM

SMILES: C[C@H]1CN(C(=O)OC2CC3(C2)CN(Cc2ccccc2)C3)CCN1c1ncc(C#N)cn1 [Compound 119, 2-benzyl-2-azaspiro[3.3]heptan-6-yl (3S)-4-(5-cyanopyrimidin-2-yl)-3-methylpiperazine-1-carboxylate]
- Ki: 100 to 1000 nM

SMILES: O=C(OC1CC2(C1)CN(Cc1ccccc1)C2)N1CCN(c2ccc(C(F)(F)F)cn2)CC1 [Compound 121, 2-benzyl-2-azaspiro[3.3]heptan-6-yl 4-[5-(trifluoromethyl)pyridin-2-yl]piperazine-1-carboxylate]
- Ki: 100 to 1000 nM

SMILES: C[C@H]1CN(C(=O)OC2CC3(C2)CN(Cc2ccccc2)C3)CCN1c1ncc(C(F)(F)F)cn1 [Compound 123, 2-benzyl-2-azaspiro[3.3]heptan-6-yl (3S)-3-methyl-4-[5-(trifluoromethyl)pyrimidin-2-yl]piperazine-1-carboxylate]
- Ki: < 10 nM

SMILES: O=C(OC1CC2(C1)CN(Cc1ccccc1)C2)N1CCN(c2ccc(C(F)(F)F)cc2)CC1 [Compound 125, 2-benzyl-2-azaspiro[3.3]heptan-6-yl 4-[4-(trifluoromethyl)phenyl]pipera-zine-1-carboxylate]
- Ki: 100 to 1000 nM

SMILES: N#Cc1cc(C(F)(F)F)ccc1N1CCN(C(=O)OC2CC3(C2)CN(Cc2ccccc2)C3)CC1 [Compound 126, 2-benzyl-2-azaspiro[3.3]heptan-6-yl 4-[2-cyano-4-(trifluoromethyl)phenyl]pipera-zine-1-carboxylate]
- Ki: 100 to 1000 nM

SMILES: C[C@@H]1CN(c2ncc(C#N)cn2)C[C@H](C)N1C(=O)OC1CC2(C1)CN(Cc1ccccc1)C2 [Compound 130, 2-Benzyl-2-azaspiro[3.3]heptan-6-yl (2R,6S)-4-(5-cyanopyrimidin-2-yl)-2,6-dimethylpiperazine-1-carboxylate]
- Ki: 10 to 100 nM

SMILES: C[C@@H]1CN(c2ncc(C(F)(F)F)cn2)CCN1C(=O)OC1CC2(C1)CN(Cc1ccccc1)C2 [Compound 132, 2-benzyl-2-azaspiro[3.3]heptan-6-yl (2R)-2-methyl-4-[5-(trifluoromethyl)pyrimidin-2-yl]piperazine-1-carboxylate]
- Ki: < 10 nM

SMILES: C[C@@H]1CN(c2ncc(C(F)(F)F)cn2)CCN1C(=O)OCC1CC2(C1)CN(Cc1ccccc1)C2 [Compound 133, {2-benzyl-2-azaspiro[3.3]heptan-6-yl}methyl (2R)-2-methyl-4-[5-(trifluoromethyl)pyrimidin-2-yl]piperazine-1-carboxylate]
- Ki: 10 to 100 nM

SMILES: C[C@@H]1CN(c2ncc(C(F)(F)F)cn2)[C@H](C)CN1C(=O)OC1CC2(C1)CN(Cc1ccccc1)C2 [Compound 135, 2-benzyl-2-azaspiro[3.3]heptan-6-yl (2R,5R)-2,5-dimethyl-4-[5-(trifluoromethyl)pyrimidin-2-yl]piperazine-1-carboxylate]
- Ki: 10 to 100 nM

SMILES: C[C@@H]1CN(c2ncc(C(F)(F)F)cn2)[C@@H](C)CN1C(=O)OC1CC2(C1)CN(Cc1ccccc1)C2 [Compound 136, 2-Benzyl-2-azaspiro[3.3]heptan-6-yl (2R,5S)-2,5-dimethyl-4-[5-(trifluoromethyl)pyrimidin-2-yl]piperazine-1-carboxylate]
- Ki: < 10 nM

SMILES: C[C@@H]1CN(c2ncc(C#N)cn2)[C@@H](C)CN1C(=O)OC1CC2(C1)CN(Cc1ccccc1)C2 [Compound 138, 2-benzyl-2-azaspiro[3.3]heptan-6-yl (2R,5S)-4-(5-cyanopyrimidin-2-yl)-2,5-dimethylpiperazine-1-carboxylate]
- Ki: 10 to 100 nM

SMILES: C[C@@H]1CN(c2ncc(C(F)(F)F)cn2)C[C@@H](C)N1C(=O)OC1CC2(C1)CN(Cc1ccccc1)C2 [Compound 139, 2-Benzyl-2-azaspiro[3.3]heptan-6-yl (2R,6R)-2,6-dimethyl-4-[5-(trifluoromethyl)pyrimidin-2-yl]piperazine-1-carboxylate]
- Ki: < 10 nM

SMILES: C[C@@H]1CN(c2cnc(C(F)(F)F)cn2)C[C@@H](C)N1C(=O)OC1CC2(C1)CN(Cc1ccccc1)C2 [Compound 142, 2-benzyl-2-azaspiro[3.3]heptan-6-yl (2R,6R)-2,6-dimethyl-4-[5-(trifluoromethyl)pyrazin-2-yl]piperazine-1-carboxylate]
- Ki: 10 to 100 nM

SMILES: C[C@@H]1CN(c2cnc(C(F)(F)F)cn2)C[C@@H](C)N1C(=O)OCC1CC2(C1)CN(Cc1ccccc1)C2 [Compound 143, {2-benzyl-2-azaspiro[3.3]heptan-6-yl}methyl (2R,6R)-2,6-dimethyl-4-[5-(trifluoromethyl)pyrazin-2-yl]piperazine-1-carboxylate]
- Ki: 100 to 1000 nM

SMILES: C[C@@H]1CN(c2ncc(C(F)(F)F)cn2)C[C@@H](C)N1C(=O)OCC1CC2(C1)CN(Cc1ccccc1)C2 [Compound 144, {2-benzyl-2-azaspiro[3.3]heptan-6-yl}methyl (2R,6R)-2,6-dimethyl-4-[5-(trifluoromethyl)pyrimidin-2-yl]piperazine-1-carboxylate]
- Ki: 10 to 100 nM

SMILES: C[C@@H]1CN(c2ncc(C(F)(F)F)cn2)C[C@@H](C)N1C(=O)OC1CC2(C1)CN(CCC(C)(C)C)C2 [Compound 145, 2-(3,3-dimethylbutyl)-2-azaspiro[3.3]heptan-6-yl (2R,6R)-2,6-dimethyl-4-[5-(trifluoromethyl)pyrimidin-2-yl]piperazine-1-carboxylate]
- Ki: 100 to 1000 nM

SMILES: C[C@@H]1CN(c2ncc(C(F)(F)F)cn2)C[C@@H](C)N1C(=O)OC1CC2(C1)CN(CC(C)(C)C)C2 [Compound 146, 2-(2,2-dimethylpropyl)-2-azaspiro[3.3]heptan-6-yl (2R,6R)-2,6-dimethyl-4-[5-(trifluoromethyl)pyrimidin-2-yl]piperazine-1-carboxylate]
- Ki: 100 to 1000 nM

SMILES: C[C@@H]1CN(c2ncc(C(F)(F)F)cn2)C[C@H](C)N1C(=O)OC1CC2(C1)CN(CCC(C)(C)C)C2 [Compound 149, 2-(3,3-dimethylbutyl)-2-azaspiro[3.3]heptan-6-yl (2R,6S)-2,6-dimethyl-4-[5-(trifluoromethyl)pyrimidin-2-yl]piperaizne-1-carboxylate]
- Ki: 100 to 1000 nM

SMILES: C[C@@H]1CN(c2ncc(C(F)(F)F)cn2)C[C@H](C)N1C(=O)OC1CC2(C1)CN(CC1CC1(C)C)C2 (stereo partly drawn) [Compound 153, 2-[(2,2-dimethylcyclopropyl)methyl]-2-azaspiro[3.3]heptan-6-yl (2R,6S)-2,6-dimethyl-4-[5-(trifluoromethyl)pyrimidin-2-yl]piperazine-1-carboxylate]
- Ki: < 10 nM

SMILES: C[C@@H]1CN(c2ncc(C(F)(F)F)cn2)C[C@H](C)N1C(=O)OC1CC2(C1)CN(CC1CCCCC1)C2 [Compound 154, 2-(cyclohexylmethyl)-2-azaspiro[3.3]heptan-6-yl (2R,6S)-2,6-dimethyl-4-[5-(trifluoromethyl)pyrimidin-2-yl]piperazine-1-carboxylate]
- Ki: 10 to 100 nM

SMILES: C[C@@H]1CN(c2ncc(C(F)(F)F)cn2)C[C@H](C)N1C(=O)OC1CC2(C1)CN(CC1CC3C=CC1C3)C2 (stereo partly drawn) [Compound 155, 2-{bicyclo[2.2.1]hept-5-en-2-ylmethyl}-2-azaspiro[3.3]heptan-6-yl (2R,6S)-2,6-dimethyl-4-[5-(trifluoromethyl)pyrimidin-2-yl]piperazine-1-carboxylate]
- Ki: 10 to 100 nM
